This is an account of results in ChEMBL document CHEMBL1151008, “Synthesis and evaluation of 4-5-dehydro-5-fluoroaristeromycins as S-adenosyl-L-homocysteine (AdoHcy) hydrolase inhibitors” (Bioorg Med Chem Lett, 1992).

SMILES strings stand for the structures.

The target of one test is T1, Adenosylhomocysteinase (Rattus norvegicus, UniProt P10760).
T1 sequence (P10760 whole entry): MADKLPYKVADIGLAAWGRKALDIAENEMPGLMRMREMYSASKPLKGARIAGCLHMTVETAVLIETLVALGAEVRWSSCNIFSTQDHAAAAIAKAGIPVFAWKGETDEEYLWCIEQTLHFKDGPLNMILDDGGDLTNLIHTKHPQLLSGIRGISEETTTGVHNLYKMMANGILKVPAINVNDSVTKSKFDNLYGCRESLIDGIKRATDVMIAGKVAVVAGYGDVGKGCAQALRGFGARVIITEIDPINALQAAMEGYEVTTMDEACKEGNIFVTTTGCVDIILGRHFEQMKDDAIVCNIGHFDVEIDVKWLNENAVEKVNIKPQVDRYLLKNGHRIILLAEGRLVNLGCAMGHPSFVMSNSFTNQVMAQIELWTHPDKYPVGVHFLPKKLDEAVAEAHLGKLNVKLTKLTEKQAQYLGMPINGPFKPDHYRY
Briefly: Compound was tested for its inhibitory activity against recombinant rat liver S-adenosyl-homocysteine hydrolase.

Test [1] deals with T2, Adenosylhomocysteinase (Rattus norvegicus) (UniProt P10760).
T2 sequence (whole entry): T1 sequence (P10760 whole entry)
Description: (§1) Rate constant was evaluated against S-adenosyl-homocysteine hydrolase

Test [2] has as its target T2, Adenosylhomocysteinase (Rattus norvegicus). This is another data set of the same source.
Description: as §1

As for `Nc1ncnc2c1ncn2[C@@H]1C/C(=C/F)[C@@H](O)[C@H]1O`, the inhibition constant Ki (as a rule, the dissociation constant of the complex between target and ligand, obtained from inhibition or displacement) on Adenosylhomocysteinase was 112 nM. The k2 in test [1] was determined as 0.031 min⁻¹.
Regarding `Nc1ncnc2c1ncn2[C@@H]1C/C(=C\F)[C@@H](O)[C@H]1O`, the inhibition constant (Ki) on Adenosylhomocysteinase is 87 nM. Also, the k2 in test [2] was found to be 0.05 min⁻¹.
As to `Nc1ncnc2c1ncn2[C@@H]1O/C(=C\F)[C@@H](O)[C@H]1O`, the Ki at Adenosylhomocysteinase amounted to 39 nM. The compound also registered a k2 in test [2] of 0.082 min⁻¹.
Taken in the same sequence, the figures for `Nc1ncnc2c1ncn2[C@@H]1O/C(=C/F)[C@@H](O)[C@H]1O` were 40 nM and 0.05 min⁻¹.
